Measured values reported in publication PMC12459184, “Design, synthesis, and bioevaluation of pyrazole-containing tubulin polymerisation inhibitors based on conformational constraint strategy” (Journal of Enzyme Inhibition and Medicinal Chemistry, 2025).
Where two headings read alike, the source gives them in different places.

How the values were obtained:
SGC-7901 cells = test: MTT antiproliferative assay, SGC-7901; assay type: cell-based; details: Homo sapiens, read-out: IC50 (μM) ± SD SGC-7901
Procedure: (§1) The in vitro antiproliferative activities of all target compounds 4a−k, 5a−h, and 6a−h were assayed by MTT method using human gastric cancer cell line SGC-7901 and human breast cancer cell line MCF-7.
(§2) All cell lines tested in this study were purchased from the American Type Culture Collection (ATCC, Manassas, VA). SGC-7901 (human gastric adenocarcinoma), HCT-116 (human colon carcinoma), and A549 (human pulmonary carcinoma) cells were cultured in RPMI-1640 medium containing 10% foetal serum (FBS) and 1% penicillin-streptomycin solution (100×). MCF-7 (human breast carcinoma) cells were cultured in DMEM medium containing 10% foetal serum (FBS) and 1% penicillin-streptomycin solution (100×). PC-3 (human prostate carcinoma) cells were cultured in Ham’s F-12K medium containing 10% foetal serum (FBS) and 1% penicillin-streptomycin solution (100×). All cells were cultured at 37 °C in a humidified atmosphere containing 5% CO2.
(§3) Cells grown in logarithmic phase were harvested and seeded onto 96-well cell plates at a density of 4 ∼ 5 × 10^3 cells per well (various from cell type) and were cultured for 24 h. Different concentrations of compounds were added into the wells, and the cells were cultured for another 72 h. The medium was removed, then 20 μL of MTT (5 mg/mL in PBS) was added to each well and the cells were incubated for 4 h. 150 μL of DMSO was added to each well to dissolve the formazan, and the absorbance at 490 nm of each well was measured by a microplate reader. IC50 values were calculated by SPSS software.

MCF-7 cells = test: MTT antiproliferative assay, MCF-7; assay type: cell-based; details: Homo sapiens, read-out: IC50 (μM) ± SD MCF-7
Procedure: as §1, §2, §3

[1] = tested on: microtubule network in PC-3 cells; test: Immunofluorescence assay of microtubule network; assay type: cell-based, human; details: 20 nM, 24 h
Procedure: To evaluate the effects of 4k and 5a on intracellular microtubule, immunofluorescence assay was carried out to observe the changes of microtubule network in cell.
PC-3 cells in logarithmic phase were harvested and seeded onto 12-well cell plates with round coverslip on the bottom of each well at a density of 3 × 10^4 cells per well, and were cultured for 24 h. […] The medium was removed, and cells were washed with PBS twice, fixed with 4% formaldehyde in PBS for 30 min, then the solution was removed. Cells were washed with PBS twice, permeabilized with 0.2% (v/v) Triton X-100 in PBS for 30 min, then the solution was removed. Cells were washed with PBS twice, blocking the cells in 5% bovine serum albumin (BSA) for 30 min. Then BSA was removed, and cells were incubated with the primary α-tubulin antibody (Santa Cruz, CA) containing 2% BSA (v/v, 1: 100) overnight at 4 °C.
The following steps were operated in dark environment. The antibody was removed, then cells were washed with PBST twice and were added FITC-conjugated anti-mouse secondary antibody diluted (1:100) with 2% BSA in PBS and incubated at room temperature for 4 h. The cells were then washed with PBST twice, stained with 4′,6-diamidino-2-phenylindole (DAPI) for 30 min at room temperature, and washed with PBS twice. The round coverslips at the bottom of wells were taken out, and the images were photographed by a confocal microscope.

tubulin = test: In vitro tubulin polymerisation assay; assay type: biochemical; details: 3 μM
Procedure: To investigate the effect of compounds 4k and 5a on microtubule system, their tubulin polymerisation inhibition activities were evaluated using in vitro tubulin polymerisation assay.
The BK001 kit used in this test was purchased from Cytoskeleton Inc. (Denver, CO, USA). […] Then the mixtures were transferred to 37 °C and tubulin assembly was monitored (excitation wavelength: 360 nm; emission wavelength: 420 nm) at 1 min intervals for 90 min by a microplate reader.

[2] = SGC-7901, 72 h drug exposure, MTT assay
[3] = MCF7, 72 h drug exposure, MTT assay

Row | SMILES | IC50 (SGC-7901 cells; [2]) | IC50 (MCF-7 cells; [3]) | other results
1 | COc1cc(C(=O)c2nn(-c3ccccc3)cc2N)cc(OC)c1OC [4a, (4-Amino-1-phenyl-1H-pyrazol-3-yl)(3,4,5-trimethoxyphenyl)methanone] | 0.04 ± 0.003 µM | 0.034 ± 0.005 µM | 
2 | COc1cc(C(=O)c2nn(-c3cccc(C)c3)cc2N)cc(OC)c1OC [4b, (4-Amino-1–(3-methylphenyl)-1H-pyrazol-3-yl)(3,4,5-trimethoxyphenyl)methanone] | 0.095 ± 0.011 µM | 0.224 ± 0.06 µM | 
3 | COc1cc(C(=O)c2nn(-c3ccc(C)cc3)cc2N)cc(OC)c1OC [4c, (4-Amino-1–(4-methylphenyl)-1H-pyrazol-3-yl)(3,4,5-trimethoxyphenyl)methanone] | 0.234 ± 0.033 µM | 3.9 ± 0.205 µM | 
4 | COc1cc(C(=O)c2nn(-c3ccccc3F)cc2N)cc(OC)c1OC [4d, (4-Amino-1–(2-fluorophenyl)-1H-pyrazol-3-yl)(3,4,5-trimethoxyphenyl)methanone] | 0.086 ± 0.004 µM | 0.404 ± 0.036 µM | 
5 | COc1cc(C(=O)c2nn(-c3cccc(F)c3)cc2N)cc(OC)c1OC [4e, (4-Amino-1–(3-fluorophenyl)-1H-pyrazol-3-yl)(3,4,5-trimethoxyphenyl)methanone] | 0.439 ± 0.037 µM | 0.35 ± 0.023 µM | 
6 | COc1cc(C(=O)c2nn(-c3ccc(F)cc3)cc2N)cc(OC)c1OC [4f, (4-Amino-1–(4-fluorophenyl)-1H-pyrazol-3-yl)(3,4,5-trimethoxyphenyl)methanone] | 0.092 ± 0.005 µM | 0.162 ± 0.01 µM | 
7 | COc1ccc(-n2cc(N)c(C(=O)c3cc(OC)c(OC)c(OC)c3)n2)cc1 [4g, (4-Amino-1–(4-methoxyphenyl)-1H-pyrazol-3-yl)(3,4,5-trimethoxyphenyl)methanone] | 0.022 ± 0.002 µM | 0.068 ± 0.012 µM | 
8 | COc1cc(C(=O)c2nn(-c3ccc(Cl)cc3)cc2N)cc(OC)c1OC [4h, (4-Amino-1–(4-chlorophenyl)-1H-pyrazol-3-yl)(3,4,5-trimethoxyphenyl)methanone] | 0.318 ± 0.02 µM | 0.098 ± 0.007 µM | 
9 | COc1cc(C(=O)c2nn(-c3ccccc3C)cc2N)cc(OC)c1OC [4i, (4-Amino-1–(2-methylphenyl)-1H-pyrazol-3-yl)(3,4,5-trimethoxyphenyl)methanone] | 0.166 ± 0.004 µM | 2.2 ± 0.196 µM | 
10 | COc1cc(C(=O)c2nn(-c3ccc([N+](=O)[O-])cc3)cc2N)cc(OC)c1OC [4j, (4-Amino-1–(4-nitrophenyl)-1H-pyrazol-3-yl)(3,4,5-trimethoxyphenyl)methanone] | 0.04 ± 0.006 µM | 0.391 ± 0.083 µM | 
11 | COc1cc(C2=NCC(=O)Nc3cn(-c4cccc(C)c4)nc32)cc(OC)c1OC [5b, 2–(3-Methylphenyl)-8–(3,4,5-trimethoxyphenyl)-2,6-dihydropyrazolo[4,3-e][1,4]diazepin-5(4H)-one] | 0.424 ± 0.076 µM | 0.665 ± 0.052 µM | 
12 | COc1cc(C2=NCC(=O)Nc3cn(-c4ccc(C)cc4)nc32)cc(OC)c1OC [5c, 2–(4-Methylphenyl)-8–(3,4,5-trimethoxyphenyl)-2,6-dihydropyrazolo[4,3-e][1,4]diazepin-5(4H)-one] | 0.117 ± 0.01 µM | 1.38 ± 0.433 µM | 
13 | COc1cc(C2=NCC(=O)Nc3cn(-c4ccccc4F)nc32)cc(OC)c1OC [5d, 2–(2-Fluorophenyl)-8–(3,4,5-trimethoxyphenyl)-2,6-dihydropyrazolo[4,3-e][1,4]diazepin-5(4H)-one] | 0.053 ± 0.008 µM | 1.08 ± 0.381 µM | 
14 | COc1cc(C2=NCC(=O)Nc3cn(-c4cccc(F)c4)nc32)cc(OC)c1OC [5e, 2–(3-Fluorophenyl)-8–(3,4,5-trimethoxyphenyl)-2,6-dihydropyrazolo[4,3-e][1,4]diazepin-5(4H)-one] | 0.949 ± 0.017 µM | 3.01 ± 0.534 µM | 
15 | COc1cc(C2=NCC(=O)Nc3cn(-c4ccc(F)cc4)nc32)cc(OC)c1OC [5f, 2–(4-Fluorophenyl)-8–(3,4,5-trimethoxyphenyl)-2,6-dihydropyrazolo[4,3-e][1,4]diazepin-5(4H)-one] | 0.137 ± 0.025 µM | 1.86 ± 0.438 µM | 
16 | COc1ccc(-n2cc3c(n2)C(c2cc(OC)c(OC)c(OC)c2)=NCC(=O)N3)cc1 [5g, 2–(4-Methoxyphenyl)-8–(3,4,5-trimethoxyphenyl)-2,6-dihydropyrazolo[4,3-e][1,4]diazepin-5(4H)-one] |  |  | IC50 (SGC-7901 cells; SGC-7901, 72 h): 0.841 ± 0.024 µM; IC50 (MCF-7 cells; MCF7, 72 h): 2.86 ± 0.435 µM
17 | COc1cc(C2=NCC(=O)Nc3cn(-c4ccc(Cl)cc4)nc32)cc(OC)c1OC [5h, 2–(4-Chlorophenyl)-8–(3,4,5-trimethoxyphenyl)-2,6-dihydropyrazolo[4,3-e][1,4]diazepin-5(4H)-one] | 0.772 ± 0.004 µM | 0.857 ± 0.09 µM | 
18 | COc1cc2c(c(OC)c1OC)-c1ccc(OC)c(=O)cc1[C@@H](NC(C)=O)CC2 [Colchicine, reference compound] |  |  | effect on microtubule network [1]: microtubule network was destroyed
19 | CC(=O)O[C@H]1C(=O)[C@@]2(C)[C@H]([C@H](OC(=O)c3ccccc3)[C@]3(O)C[C@H](OC(=O)[C@H](O)[C@@H](NC(=O)c4ccccc4)c4ccccc4)C(C)=C1C3(C)C)[C@]1(OC(C)=O)CO[C@@H]1C[C@@H]2O [paclitaxel, reference compound] |  |  | effect on tubulin polymerisation (fluorescence intensity) (tubulin): enhanced microtubule polymerisation

Now from value to compound, other results behind:

Row | IC50 (SGC-7901 cells; [2]) | IC50 (MCF-7 cells; [3]) | SMILES | other results
20 | 2.74 ± 0.041 µM | 2.98 ± 0.462 µM | COc1cc(C2=NNC(=S)Nc3cn(-c4ccccc4)nc32)cc(OC)c1OC [6a, 2-Phenyl-8–(3,4,5-trimethoxyphenyl)-2,6-dihydropyrazolo[4,3-e][1,2,4]triazepine-5(4H)-thione] | 
21 | 0.366 ± 0.065 µM | 0.749 ± 0.181 µM | COc1cc(C2=NNC(=S)Nc3cn(-c4cccc(C)c4)nc32)cc(OC)c1OC [6b, 2–(3-Methylphenyl)-8–(3,4,5-trimethoxyphenyl)-2,6-dihydropyrazolo[4,3-e][1,2,4]triazepine-5(4H)-thione] | 
22 | 0.151 ± 0.024 µM | 0.123 ± 0.02 µM | COc1cc(C2=NNC(=S)Nc3cn(-c4ccc(C)cc4)nc32)cc(OC)c1OC [6c, 2–(4-Methylphenyl)-8–(3,4,5-trimethoxyphenyl)-2,6-dihydropyrazolo[4,3-e][1,2,4]triazepine-5(4H)-thione] | 
23 | 0.087 ± 0.008 µM | 0.398 ± 0.079 µM | COc1cc(C2=NNC(=S)Nc3cn(-c4ccccc4F)nc32)cc(OC)c1OC [6d, 2–(2-Fluorophenyl)-8–(3,4,5-trimethoxyphenyl)-2,6-dihydropyrazolo[4,3-e][1,2,4]triazepine-5(4H)-thione] | 
24 | 5.12 ± 0.099 µM | 6.9 ± 0.815 µM | COc1cc(C2=NNC(=S)Nc3cn(-c4cccc(F)c4)nc32)cc(OC)c1OC [6e, 2–(3-Fluorophenyl)-8–(3,4,5-trimethoxyphenyl)-2,6-dihydropyrazolo[4,3-e][1,2,4]triazepine-5(4H)-thione] | 
25 | 10 ± 0.078 µM | 8.42 ± 0.954 µM | COc1cc(C2=NNC(=S)Nc3cn(-c4ccc(F)cc4)nc32)cc(OC)c1OC [6f, 2–(4-Fluorophenyl)-8–(3,4,5-trimethoxyphenyl)-2,6-dihydropyrazolo[4,3-e][1,2,4]triazepine-5(4H)-thione] | 
26 | 2.16 ± 0.098 µM | 1.57 ± 0.243 µM | COc1ccc(-n2cc3c(n2)C(c2cc(OC)c(OC)c(OC)c2)=NNC(=S)N3)cc1 [6g, 2–(4-Methoxyphenyl)-8–(3,4,5-trimethoxyphenyl)-2,6-dihydropyrazolo[4,3-e][1,2,4]triazepine-5(4H)-thione] | 
27 | 0.485 ± 0.03 µM | 0.662 ± 0.07 µM | COc1cc(C2=NNC(=S)Nc3cn(-c4ccc(Cl)cc4)nc32)cc(OC)c1OC [6h, 2–(4-Chlorophenyl)-8–(3,4,5-trimethoxyphenyl)-2,6-dihydropyrazolo[4,3-e][1,2,4]triazepine-5(4H)-thione] | 
